Experimental data from publication PMC7021761 (Nature Communications, 2020).
Values belong to the substance of their own block, whether it stands above or below them.

Columns and labels:
FPR1 = details: cited from earlier work
From the text: FPR1 and FPR2 share a high 69% sequence identity, but they have distinct preferences for formylpeptides and play different roles in host defense[4],[40],[43]. […] To explore the molecular basis for the different receptor pharmacology, we generated a three-dimensional homology model of FPR1 ...

C5aR = target: T1, C5aR (Homo sapiens, UniProt P21730); assay: 35S-GTPγS binding assay, Sf9 cell membranes overexpressing C5aR with purified Gi (control); assay type: biochemical; details: increasing concentrations of WKYMVm, n = 3
T1 construct: expressed in transfected cells; host or cells: Sf9 insect cells, membranes
T1 sequence (P21730 1-350): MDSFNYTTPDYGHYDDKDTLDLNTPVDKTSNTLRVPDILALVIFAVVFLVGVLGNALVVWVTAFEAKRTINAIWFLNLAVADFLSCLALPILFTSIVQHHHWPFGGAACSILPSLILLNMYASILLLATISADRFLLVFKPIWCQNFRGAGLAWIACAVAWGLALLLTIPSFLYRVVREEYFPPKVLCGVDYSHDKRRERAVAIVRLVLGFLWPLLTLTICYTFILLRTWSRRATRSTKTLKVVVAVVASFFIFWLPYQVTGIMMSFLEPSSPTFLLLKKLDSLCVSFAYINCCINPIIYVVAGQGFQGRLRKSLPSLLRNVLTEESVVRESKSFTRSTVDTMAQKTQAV
Description: To form receptor-Gi complex, ~250 μg/ml of membrane of Sf9 cells overexpressing FPR2 or C5aR (for Fig. 1a) or membrane of HEK-293 cells transiently expressing FPR2 and mutants was incubated with 200 nM purified Gi protein for 25 minutes at 4°C in buffer containing 20 mM HEPES pH 7.5, 100 mM NaCl, 5 mM MgCl2, 5 μM GDP, 0.1 μM TCEP, and 3 μg/ml BSA. […] After 10–15 min reaction at 25 °C, 4 ml of cold wash buffer containing 20 mM HEPES pH 7.5, 100 mM NaCl and 5 mM MgCl2 was added to terminate the reaction, and the membranes was collected by filtering through glass fiber prefilters (Millipore Sigma). After four times additional wash, the filters were incubated with 5 ml of CytoScint liquid scintillation cocktail (MP Biomedicals) and counted in a Beckman LS6500 scintillation counter to determine the receptor activation induced binding of ^35S-GTPγS to Gi. The data were analyzed by GraphPad Prism 6 (GraphPad Software). Results are presented as mean ± s.e.m. from three independent experiments.

FPR2 R205A [1] = target: T2, FPR2 R205A (Homo sapiens, UniProt P25090, R205A); assay: BRET assay of Gi coupling to FPR2-Rluc8, permeabilized HEK-293 cells, R205A; assay type: cell-based; set-up: expressed in transfected cells; host or cells: HEK-293 cells (ATCC), transient, digitonin-permeabilized
Description: (§1) HEK-293 cells (ATCC, Manassas, VA, USA) were propagated in plastic flasks and on 6-well plates according to the supplier’s protocol. To measure Gi coupling to FPR2, cells were transiently transfected with an FPR2-Rluc8 receptor (wt or mutant) and Gαi1, Venus-1-155-Gγ2 and Venus-155-239-Gβ1 using linear polyethyleneimine MAX (PEI MAX; MW 40,000) at an N/P ratio of 20 and were used for experiments 48 h later. Up to 3.0 μg of plasmid DNA was transfected in each well of a 6-well plate. To measure BRET signals, cells were washed twice with permeabilization buffer (KPS) containing 140 mM KCl, 10 mM NaCl, 1 mM MgCl2, 0.1 mM KEGTA, 20 mM NaHEPES (pH 7.2), harvested by trituration, permeabilized in KPS buffer containing 10 μg ml^−1 high purity digitonin, and transferred to opaque black 96-well plates containing diluted ligands and 2U ml^−1 apyrase. After addition of coelenterazine h (5 µM; Nanolight, Pinetop, AZ, USA), steady-state BRET measurements were made using a Mithras LB940 photon-counting plate reader (Berthold Technologies GmbH, Bad Wildbad, Germany). Raw BRET signals were calculated as the emission intensity at 520–545 nm divided by the emission intensity at 475–495 nm. The data were analyzed in Prism (GraphPad) by using ‘log(agonist) vs normalized response- variable slope (four parameters)’ of dose-response stimulation.
Target sequence in this assay (P25090 whole entry R205A): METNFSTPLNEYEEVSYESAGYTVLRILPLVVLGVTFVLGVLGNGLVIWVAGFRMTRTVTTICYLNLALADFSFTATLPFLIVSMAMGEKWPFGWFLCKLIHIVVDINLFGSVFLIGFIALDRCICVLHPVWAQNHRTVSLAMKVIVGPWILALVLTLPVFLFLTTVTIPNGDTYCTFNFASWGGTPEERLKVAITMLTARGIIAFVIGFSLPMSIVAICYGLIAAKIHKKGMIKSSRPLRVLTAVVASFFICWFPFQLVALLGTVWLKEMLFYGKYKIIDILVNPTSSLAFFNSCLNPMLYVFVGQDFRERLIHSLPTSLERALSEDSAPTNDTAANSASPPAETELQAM
Target sequence in this assay (P63096 whole entry partner): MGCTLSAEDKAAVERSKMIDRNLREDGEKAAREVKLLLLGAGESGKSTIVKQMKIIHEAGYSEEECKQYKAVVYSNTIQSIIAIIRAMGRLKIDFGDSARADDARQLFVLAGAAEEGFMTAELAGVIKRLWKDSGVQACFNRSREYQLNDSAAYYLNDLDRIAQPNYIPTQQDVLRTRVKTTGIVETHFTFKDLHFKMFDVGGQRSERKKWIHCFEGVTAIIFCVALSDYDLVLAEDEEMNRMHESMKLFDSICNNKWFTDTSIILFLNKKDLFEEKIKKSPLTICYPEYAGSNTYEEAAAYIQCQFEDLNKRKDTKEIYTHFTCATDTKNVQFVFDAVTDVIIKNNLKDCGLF
Target sequence in this assay (P59768 whole entry partner): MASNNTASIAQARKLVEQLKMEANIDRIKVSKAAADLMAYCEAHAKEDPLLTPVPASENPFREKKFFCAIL
Target sequence in this assay (P62873 whole entry partner): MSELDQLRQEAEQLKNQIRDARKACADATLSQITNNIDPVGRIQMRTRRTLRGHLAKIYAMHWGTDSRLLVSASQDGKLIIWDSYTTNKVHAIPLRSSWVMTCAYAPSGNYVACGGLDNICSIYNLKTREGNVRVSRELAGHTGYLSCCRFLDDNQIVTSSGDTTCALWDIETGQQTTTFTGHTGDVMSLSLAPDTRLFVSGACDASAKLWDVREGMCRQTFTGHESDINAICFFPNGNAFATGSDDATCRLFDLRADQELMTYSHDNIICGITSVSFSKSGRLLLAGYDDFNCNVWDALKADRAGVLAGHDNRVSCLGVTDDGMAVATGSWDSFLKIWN

FPR2 R201A [2] = target: T3, FPR2 R201A (Homo sapiens, UniProt P25090, R201A); assay: BRET assay of Gi coupling to FPR2-Rluc8, permeabilized HEK-293 cells, R201A; assay type: cell-based; set-up: expressed in transfected cells; host or cells: HEK-293 cells (ATCC), transient, digitonin-permeabilized
Description: as §1
Target sequence in this assay (P25090 whole entry R201A): as the sequence (P25090 whole entry R205A) above, with R201A, A205R counted along it
Target sequence in this assay (P63096 whole entry partner): as the sequence (P63096 whole entry partner) above
Target sequence in this assay (P59768 whole entry partner): as the sequence (P59768 whole entry partner) above
Target sequence in this assay (P62873 whole entry partner): as the sequence (P62873 whole entry partner) above

[3] = Aggregation of the ligand in assay buffer (authors' reply to reviewer); assay type: physicochemical; details: peptide with a high hydrophobicity; authors' statement in rebuttal, no data shown
FPR2 R201A [4] = target: T3, FPR2 R201A; assay: 35S-GTPγS binding assay, HEK-293 cell membranes with purified Gi, FPR2 R201A; assay type: biochemical; set-up: FLAG; expressed in transfected cells; host or cells: HEK-293 cells, transient, membranes
Target sequence in this assay (P25090 whole entry R201A): as the sequence (P25090 whole entry R205A) above, with R201A, A205R counted along it
Target sequence in this assay (P63096 whole entry partner): as the sequence (P63096 whole entry partner) above
Target sequence in this assay (P54311 whole entry partner): as the sequence (P62873 whole entry partner) above
Target sequence in this assay (P63212 2-68 partner limits assumed): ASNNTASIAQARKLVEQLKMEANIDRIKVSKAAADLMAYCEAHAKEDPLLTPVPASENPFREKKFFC

FPR2 R205A [5] = target: T2, FPR2 R205A; assay: 35S-GTPγS binding assay, HEK-293 cell membranes with purified Gi, FPR2 R205A; assay type: biochemical; set-up: FLAG; expressed in transfected cells; host or cells: HEK-293 cells, transient, membranes
Target sequence in this assay (P25090 whole entry R205A): as the sequence (P25090 whole entry R205A) above
Target sequence in this assay (P63096 whole entry partner): as the sequence (P63096 whole entry partner) above
Target sequence in this assay (P54311 whole entry partner): as the sequence (P62873 whole entry partner) above
Target sequence in this assay (P63212 2-68 partner limits assumed): as the sequence (P63212 2-68 partner limits assumed) above

Wild type FPR2 = details: cited from earlier work
From the text: IC50 values of six formylpeptides in the cAMP accumulation assays reported previously by He et al., 2014*.

- WKYMVm-induced Gi activation with C5aR (control) (C5aR): didn’t induce Gi activation
Substance: Trp-Lys-Tyr-Met-Val-d-Met-NH2 [WKYMVm, synthetic peptide agonist of FPR2]
- potency for FPR1 compared with FPR2 (FPR1): lower potency

Substance: fMLF
- fold more potent in activating FPR1 than activating FPR2 (FPR1): ~ 1000 fold

- fMLFII-induced Gi coupling, R205A mutant versus wt (FPR2 R205A [1]): dramatic decrease
- fMLFII-induced Gi coupling, R201A mutant versus wt (FPR2 R201A [2]): dramatic decrease
- concentration above which fractions of aggregation could occur [3]: above 10 µM
- fMLFII-induced FPR2 activation, R201A mutant versus wt (FPR2 R201A [4]): dramatic decrease
- fMLFII-induced FPR2 activation, R205A mutant versus wt (FPR2 R205A [5]): dramatic decrease
Substance: fMLFII [short formylpeptide]

Substance: fMLFK
- fold higher potency in activating FPR2 than fMLFE (Wild type FPR2): 500–5000 fold
